# “Also recorded” adds a separate entry of the source.
# How the values were obtained:
# C. parvum oocysts = experiment: C. parvum oocyst excystation assay; assay type: cell-based, Cryptosporidium parvum; settings: 7.5 µM, 1-hour incubation
# Procedure: (§1) C. parvum excystation and invasion assays: Oocyst excystation rates in the presence of compounds were determined as previously described. The C. parvum invasion inhibition assays were conducted in two formats. In the first format, described previously, HCT-8 cells were seeded on glass slides (CELLTREAT Scientific Product, Pepperell, MA, USA) and allowed to grow to confluence. Oidiolactone A was added to the cells for one hour. TrtE and DMSO were run in parallel as positive and negative controls, respectively. The cell monolayers were then infected with 1.2 × 10^6 wild-type C. parvum oocysts. After 3 h of incubation at 37 °C, the slides were washed five times with 111 mM D-galactose, fixed with 4% paraformaldehyde, and permeabilized with 0.25% Triton-X. C. parvum sporozoites were detected with rabbit anti-gp40 [39] and Alexa Fluor 594 goat anti-rabbit antibodies. The HCT-8 cell nuclei were stained with 0.09 mM Hoechst. Slides were coded to enable unbiased counting, and sporozoites from at least 10 randomly selected fields were counted in each sample at 100× magnification (Zeiss® Axioscope 5). The percentage of invaded parasites was determined using the following equation: % Invaded parasites = [parasitescompound/parasitesDMSO] × 100. This experiment was run in duplicate with two biological replicates.
# HepG2 human hepatocytes = experiment: HepG2 cytotoxicity assay (MTS); assay type: cell-based; settings: 48 h, mean +/- SD
# Procedure: HepG2 cytotoxicity assay: Mammalian cell cytotoxicity was assessed in HepG2 human hepatocytes using an MTS 3-(4,5-dimethylthiazol-2-yl)-5-(3-carboxymethoxyphenyl)-2-(4-sulfophenyl)-2H-tetrazolium)-based cytotoxicity assay. For cytotoxicity testing, ∼2250 cells were seeded into each well of a 384-well microtiter plate and incubated for 24 h. Serial dilutions of the compounds were added in triplicate starting at 25 μM. Cells were further incubated for an additional 48 h at 37 °C in an atmosphere containing 5% CO2. Zero-growth control wells were incubated with 5% Triton X-100 for 5 min prior to MTS addition. Following the addition of MTS to all wells, the plates were incubated for an additional 4 h under the same environmental conditions before taking absorbance measurements. Absorbance values were recorded at 490 nm using a Synergy Neo2 multimode reader (BioTek), and values were normalized based on Triton X-100-lysed and no treatment controls. Samples were run in triplicate in each assay, and the experiments were repeated three times.
# Cp-NLuc = experiment: C. parvum -static versus -cidal washout assay; assay type: cell-based, Cryptosporidium parvum
# Procedure: To determine -static versus -cidal activity, the infection assay was conducted as described, but infected cells were treated with compounds for 30 min up to 24 h. The compounds were removed after the designated times, and infection was quantified at 72 h post-infection. To determine the activity of the compounds against asexual and sexual stages of the parasite, compounds were added for 4 h windows at times corresponding to asexual or sexual development. Parasite proliferation was then determined at 72 h post-infection. For all assays, each sample was run in triplicate, and three biological replicates were performed.
# HFF cells = experiment: HFF cytotoxicity assay; assay type: cell-based
# Procedure: HCT-8 and HFF cytotoxicity assays: Cytotoxicity of the compounds was determined against both confluent (the conditions of the infection assays) and growing HCT-8 and HFF host cells, as previously described. Cells were seeded into white-sided, clear-bottom 96-well plates and grown to either 40% or 100% confluency. Compounds were added to cells at various concentrations up to 100 µM in a final DMSO concentration of 0.5%. DMSO was run in parallel as a vehicle control. After 48 h, the viability of the cells was determined by either quantification of cellular ATP (Cell-Titer Glo cell viability assay; Promega, Madison WI, USA) or by MTT assay. Viability was determined 24 h after compound addition to HFF cells or 48 h after compound addition to HCT-8 cells or HepG2 cells. The percent cell growth was then calculated with the following formula: % Cell Growth = [RLUcompound/RLUDMSO] × 100. Samples were run in triplicate with two to three biological replicates.
# [1] = system: C. parvum intracellular stages; experiment: C. parvum immunofluorescence assay; assay type: cell-based, Cryptosporidium parvum; settings: 7.5 µM, 20 h
# Procedure: C. parvum and T. gondii immunofluorescence assays (IFAs): IFAs were conducted as previously described with modifications. For C. parvum IFAs, HCT-8 cells were seeded on 4-well chamber cell culture glass slides (CELLTREAT Scientific Product, Pepperell, MA, USA). At confluency, the cell monolayers were infected with 5 × 10^5 wild-type (WT) C. parvum oocysts prepared as previously described. Slides were spun at 1000 rpm for 3 min to allow oocysts to have full contact with the cell monolayers. At 4 hpi, 7.5 µM oidiolactone A or DMSO control, diluted in medium containing 0.6% taurocholic acid, was added to the infected cells for 20 h. At 24 hpi, the slides were fixed with 4% paraformaldehyde and permeabilized with 0.25% Triton-X. The slides were then blocked with 10% goat serum in 1x PBS. C. parvum intracellular stages were visualized with Sporo-glo (Waterborne inc., New Orleans, LA, USA). The slides were mounted using VECTASHIELD® PLUS Antifade Mounting Medium with DAPI (Vector Laboratories, Inc., Newark CA, USA). Representative images of the samples were taken using the Nikon AX R confocal microscope and Nikon Elements acquisition software. Image processing was performed using Fiji v1.54p.
# T. gondii = T. gondii growth inhibition assay (TgRH-Luc:GFP-infected HFF cells); assay type: cell-based; settings: Toxoplasma gondii, 10 µM to 156 nM, Figure 2E
# Procedure: T. gondii growth inhibition assays: The T. gondii inhibition assay was described previously. Briefly, HFF cells were seeded onto white-sided, clear-bottom 96 well plates, grown to confluence, and then 5000 TgRH-Luc:GFP parasites were added to each well. At 24 hpi, compounds or DMSO were added. The growth of the parasites was determined by relative luminescence at 48 hpi using Promega Bright-Glo (Promega, Madison, WI, USA) substrate. Plates were read, and the percent inhibition of parasite growth was calculated as described above. Determination of -static versus -cidal activity was conducted as indicated above, with parasite growth quantified after 48 h of infection. Each sample was run in triplicate, and each experiment was repeated three times.
# C. parvum sporozoites = experiment: C. parvum invasion inhibition assay; assay type: cell-based, Cryptosporidium parvum; settings: 7.5 µM, 3 h infection, luciferase and IFA formats
# Procedure: as §1, with “replicates. […]” for “replicates.”
structure (smiles),measurement,setting,value
"CO[C@H]1OC(=O)C=C2[C@@]13O[C@@H]3[C@H]1OC(=O)[C@@]3(C)CCC[C@@]2(C)[C@@H]13 [compound 1, oidiolactone A]",effect on oocyst excystation,C. parvum oocysts,no effect
same,TC50 HepG2,HepG2 human hepatocytes,> 25 µM
same,EC90,Cp-NLuc; Cryptosporidium parvum,7.5 µM
same,treatment time after which C. parvum did not recover (killing time),"Cp-NLuc; at EC90 7.5 µM, compound washed out, read 72 h post-infection",8 to 12 h
same,TC50 HFF (confluent),HFF cells; confluent,> 30 µM
same,toxicity to host cells (no toxicity up to),"HFF cells; confluent HFF, conditions of the infection assay, 24 h, cellular ATP",> 100 µM
same,cytotoxicity against sub-confluent HFF,HFF cells; sub-confluent,no cytotoxicity observed
same,abundance of treated C. parvum parasites by IFA,[1],much lower abundances
same,EC50,T. gondii,1.63 µM
same,effect on parasite invasion,C. parvum sporozoites,no effect; also recorded: did not exhibit any effect

# — article PMC12654037, “Norditerpene Natural Products from Subterranean Fungi with Anti-Parasitic Activity” (Microorganisms, 2025)
